Values quoted from earlier work, collected in PMC8152572 (Chemical Science, 2020).

System: scFv-SM3
Conditions: SM3 antibody, comparison of 2a, 2b and 2c

## APDTRP [Compound 2c]
  binding to SM3 (in words): worse binding to the naked derivative 2c
